The text below walks through data of article PMC10272180, “Ancient medicinal plant rosemary contains a highly efficacious and isoform-selective KCNQ potassium channel opener” (Communications Biology, 2023).

One series has as its target KCNQ3* (KCNQ3-A315T) (Homo sapiens, UniProt O43525, A315T). The experiment in a line: TEVC of KCNQ3* homomers expressed in Xenopus laevis oocytes. It counts as cell-based.
A further series deals with T1, KCNQ3/5 (Homo sapiens, UniProt O43525+Q9NR82).
T1 construct: expressed in transfected cells; host or cells: Xenopus laevis oocytes co-injected with cRNAs
Briefly: TEVC of KCNQ3/5 heteromers expressed in Xenopus laevis oocytes. It counts as cell-based. The following applies: 5 µM each substance. The source says: (§1) We generated cRNA transcripts encoding human KCNQ1, 2, 3, and 5 (wild-type and mutant) by in vitro transcription using the mMessage mMachine kit (Thermo Fisher Scientific, Waltham, MA, USA) according to manufacturer’s instructions, after vector linearization, from cDNA sub-cloned into expression vectors (pTLNx and pXOOM) incorporating Xenopus laevis β-globin 5’ and 3’ UTRs flanking the coding region to enhance translation and cRNA stability. Mutant KCNQ cDNAs were generated by Genscript (Piscataway, NJ, USA) and cRNAs made as above. We injected defolliculated stage V and VI Xenopus laevis oocytes (Xenoocyte, Dexter, MI, USA) with KCNQ cRNAs (2–10 ng) and incubated the oocytes at 16 °C in ND96 oocyte storage solution containing penicillin and streptomycin, with daily washing, for 2–4 days prior to two-electrode voltage-clamp (TEVC) recording.
(§2) We performed TEVC at room temperature using an OC-725C amplifier (Warner Instruments, Hamden, CT, USA) and pClamp10 software (Molecular Devices, Sunnyvale, CA, USA) 2–4 days after cRNA injection. We placed oocytes in a small-volume oocyte bath (Warner) and viewed them with a dissection microscope for cellular electrophysiology. We sourced chemicals from Sigma-Aldrich (St. Louis, MO, USA) and Combi-Blocks (San Diego, CA, USA). We studied effects of Salvia rosmarinus extracts and of compounds, solubilized directly in bath solution (in mM): 96 NaCl, 4 KCl, 1 MgCl2, 1 CaCl2, 10 HEPES (pH 7.6). We introduced extracts or compounds into the oocyte recording bath by gravity perfusion at a constant flow of 1 ml per minute for 3 min prior to recording. Pipettes were of 1-2 MΩ resistance when filled with 3 M KCl. […] We analyzed data using Clampfit (Molecular Devices) and Graphpad Prism software (GraphPad, San Diego, CA, USA), stating values as mean ± SEM. We plotted raw or normalized tail currents versus prepulse voltage and fitted with a single Boltzmann function:1 g=(A1−A2)/1+exp[V1/2−V/Vs]y+A2 where g is the normalized tail conductance, A1 is the initial value at -∞, A2 is the final value at +∞, V1/2 is the half-maximal voltage of activation and Vs the slope factor. We fitted activation and deactivation kinetics with single exponential functions.

Series [1] is described as follows: Solubility limit for testing in bath solution. Type of series: physicochemical. The source says: We performed TEVC at room temperature using an OC-725C amplifier (Warner Instruments, Hamden, CT, USA) and pClamp10 software (Molecular Devices, Sunnyvale, CA, USA) 2–4 days after cRNA injection. We placed oocytes in a small-volume oocyte bath (Warner) and viewed them with a dissection microscope for cellular electrophysiology. We sourced chemicals from Sigma-Aldrich (St. Louis, MO, USA) and Combi-Blocks (San Diego, CA, USA). We studied effects of Salvia rosmarinus extracts and of compounds, solubilized directly in bath solution (in mM): 96 NaCl, 4 KCl, 1 MgCl2, 1 CaCl2, 10 HEPES (pH 7.6). We introduced extracts or compounds into the oocyte recording bath by gravity perfusion at a constant flow of 1 ml per minute for 3 min prior to recording. Pipettes were of 1-2 MΩ resistance when filled with 3 M KCl. We recorded currents in response to voltage pulses between −120 mV and +40 mV at 10 mV intervals from a holding potential of −80 mV, to yield current-voltage relationships and examine activation kinetics. We analyzed data using Clampfit (Molecular Devices) and Graphpad Prism software (GraphPad, San Diego, CA, USA), stating values as mean ± SEM. We plotted raw or normalized tail currents versus prepulse voltage and fitted with a single Boltzmann function:1 g=(A1−A2)/1+exp[V1/2−V/Vs]y+A2 where g is the normalized tail conductance, A1 is the initial value at -∞, A2 is the final value at +∞, V1/2 is the half-maximal voltage of activation and Vs the slope factor. We fitted activation and deactivation kinetics with single exponential functions.

The next series addresses T2, KCNQ2/3 (Homo sapiens, UniProt O43525+O43526).
T2 construct: expressed in transfected cells; host or cells: Xenopus laevis oocytes co-injected with cRNAs
The experiment in a line: TEVC of KCNQ2/3 heteromers expressed in Xenopus laevis oocytes. It counts as cell-based.
Source text: as §1
as §2, with “We” for “We performed TEVC at room temperature using an OC-725C amplifier (Warner Instruments, Hamden, CT, USA) and pClamp10 software (Molecular Devices, Sunnyvale, CA, USA) 2–4 days after cRNA injection. We”

The target of a further series is KCNQ2 (Homo sapiens, UniProt O43526). Briefly: TEVC of KCNQ2 homomers expressed in Xenopus laevis oocytes. Type of series: cell-based.
Source text: as §1, §2

[2] abbreviates: 5 µM each substance, table head prints KCNQ3*, text says KCNQ3/5.

Sequence of KCNQ3* (KCNQ3-A315T) (O43525 whole entry A315T): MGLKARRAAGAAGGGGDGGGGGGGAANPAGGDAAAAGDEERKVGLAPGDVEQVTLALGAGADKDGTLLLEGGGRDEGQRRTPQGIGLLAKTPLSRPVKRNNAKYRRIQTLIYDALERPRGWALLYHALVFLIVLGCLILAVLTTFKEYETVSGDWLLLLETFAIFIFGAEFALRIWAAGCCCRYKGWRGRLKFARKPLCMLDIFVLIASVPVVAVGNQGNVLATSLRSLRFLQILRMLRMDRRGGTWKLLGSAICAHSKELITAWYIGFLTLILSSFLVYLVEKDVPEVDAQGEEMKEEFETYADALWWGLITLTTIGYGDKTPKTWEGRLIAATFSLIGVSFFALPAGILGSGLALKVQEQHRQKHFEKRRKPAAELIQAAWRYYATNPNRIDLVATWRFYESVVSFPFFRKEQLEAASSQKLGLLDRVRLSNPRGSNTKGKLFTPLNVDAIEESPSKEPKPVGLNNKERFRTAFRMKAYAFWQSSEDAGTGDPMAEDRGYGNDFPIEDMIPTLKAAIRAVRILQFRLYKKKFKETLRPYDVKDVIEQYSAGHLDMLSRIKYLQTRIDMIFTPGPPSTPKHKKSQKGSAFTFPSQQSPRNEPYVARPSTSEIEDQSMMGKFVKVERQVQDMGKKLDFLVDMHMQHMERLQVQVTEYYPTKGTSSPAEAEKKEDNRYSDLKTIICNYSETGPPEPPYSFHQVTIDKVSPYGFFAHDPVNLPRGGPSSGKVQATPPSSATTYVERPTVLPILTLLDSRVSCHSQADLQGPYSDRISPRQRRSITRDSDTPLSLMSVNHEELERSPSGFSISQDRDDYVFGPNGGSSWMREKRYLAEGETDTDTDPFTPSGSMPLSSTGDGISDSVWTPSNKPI

Regarding `C1=C2CCCN[C@H]2[C@@H]2C[C@H]1[C@H]1CCCCN1C2` [Aloperine, aloperine, reference compound], on KCNQ3* (KCNQ3-A315T) (setting [2]), the Slope turned out to be 6.96 ± 0.67 mV and the “V0.5 Normalized tail current” value was -46.72 ± 0.78 mV. Also, the channel opening result at KCNQ3/5 is given as “weak KCNQ3/5 opener”.
Take `CC(=O)Oc1c(C(C)C)cc2c(c1OC(C)=O)C1(C(=O)O)CCCC(C)(C)C1CC2` (stereo not drawn) [Carnosic acid diacetate]: at KCNQ3* (KCNQ3-A315T) (10 µM), the Slope is given as 5.06 ± 0.63 mV, the “V0.5 Normalized tail current” value is reported as -50.38 ± 0.69 mV and the “shift in V0.5act / opening” value is “only weakly negative-shifted”. Besides, the “solubility (highest testable concentration)” value in series [1] (pH 7.6) is recorded as “solubility issues”. Also, on KCNQ2/3 (10 µM), the Slope is recorded as 6.11 ± 0.49 mV, the “V0.5 Normalized tail current” value is -38.43 ± 0.56 mV and the “shift in V0.5act / opening” value is “only weakly negative-shifted”.
Turning to `CC(C)c1cc2c3c(c1O)OC(=O)C31CCCC(C)(C)C1CC2` (stereo not drawn) [Carnosic gamma lactone, carnosic acid γ-lactone], at KCNQ2 (10 µM), the Slope worked out at 6.47 ± 0.40 mV and the “V0.5 Normalized tail current” value is given as -46.18 ± 0.46 mV. At KCNQ3* (KCNQ3-A315T) (10 µM), the Slope turned out to be 4.81 ± 0.56 mV, the “V0.5 Normalized tail current” value was -54.06 ± 0.70 mV, the “effect on EM of unclamped oocytes” value is reported as “without hyperpolarizing” and the “shift in V0.5act / opening” value is given as −8.7 mV. For the same compound, the “solubility (highest testable concentration)” value in series [1] (bath solution) was “solubility issues”. For the same compound, on KCNQ2/3 (10 µM), the Slope is reported as 6.78 ± 0.62 mV, the “V0.5 Normalized tail current” value is on record as -40.71 ± 0.71 mV, the “effect on EM of unclamped oocytes” value is “without hyperpolarizing” and the “shift in V0.5act / opening” value was −10 mV.
`CC(C)c1cc2c(c(O)c1O)[C@@]13CCCC(C)(C)[C@@H]1C[C@@H]2OC3=O` [Carnosol]: the Slope at KCNQ2 (100 µM) was 3.97 ± 1.31 mV; at KCNQ3* (KCNQ3-A315T) (100 µM) it was 5.00 ± 1.11 mV; at KCNQ2/3 (100 µM) it was 5.82 ± 0.75 mV. Also, the entries for the “V0.5 Normalized tail current” value on KCNQ2 (100 µM), on KCNQ3* (KCNQ3-A315T) (100 µM) and at KCNQ2/3 (100 µM) were -57.08 ± 1.31 mV, -61.13 ± 1.28 mV and -47.80 ± 0.87 mV, respectively. For the same compound, the “effect on EM of unclamped oocytes” value at KCNQ2 (100 µM), at KCNQ3* (KCNQ3-A315T) (100 µM (hesperidin 30 µM)) and on KCNQ2/3 (100 µM) was “did not alter” each time. Further, the “shift in V0.5act” value on KCNQ3* (KCNQ3-A315T) (100 µM) is on record as −11 mV; at KCNQ2/3 (100 µM) it was “no shift”.
Take `COc1c(C(C)C)cc2c(c1OC)C13CCCC(C)(C)C1CC2OC3=O` (stereo not drawn) [Dimethylcarnosol, dimethyl carnosol]: at KCNQ3* (KCNQ3-A315T) (100 µM), the Slope was 4.92 ± 0.40 mV and the “V0.5 Normalized tail current” value was -49.25 ± 0.43 mV. The “hyperpolarization of EM” value at KCNQ3* (KCNQ3-A315T) (100 µM, unclamped oocytes) is recorded as more than 8 mV. Moreover, at KCNQ2/3 (100 µM), the Slope came to 6.71 ± 0.64 mV and the “V0.5 Normalized tail current” value was -37.81 ± 0.73 mV.
In the case of `COc1ccc([C@@H]2CC(=O)c3c(O)cc(O[C@@H]4O[C@H](CO[C@@H]5O[C@@H](C)[C@H](O)[C@@H](O)[C@H]5O)[C@@H](O)[C@H](O)[C@H]4O)cc3O2)cc1O` [Hesperidin, hesperidin], the channel opening result at KCNQ2 (30 µM) is “did not open”. Also, at KCNQ2 (100 µM), the Slope worked out at 6.54 ± 0.41 mV and the “V0.5 Normalized tail current” value was -45.73 ± 0.48 mV. For the same compound, at KCNQ3* (KCNQ3-A315T) (30 µM), the Slope came to 4.65 ± 0.46 mV, the “V0.5 Normalized tail current” value is -55.97 ± 0.57 mV, the “V0.5 non-normalized tail current” value is listed as -55.83 ± 1.97 mV and the “shift in V0.5act” value is listed as ~ −10 mV. Besides, the “effect on EM of unclamped oocytes” value on KCNQ3* (KCNQ3-A315T) (100 µM (hesperidin 30 µM)) is listed as “hyperpolarized”. Besides, the solubility in series [1] (oocyte recording bath solution, pH 7.6, aqueous buffer, read-out: solubility (highest testable concentration)) is not above 30 µM. Besides, on KCNQ2/3 (30 µM), the Slope came to 7.73 ± 0.60 mV, the “V0.5 Normalized tail current” value is on record as -48.08 ± 0.71 mV, the V0.5act shift was −10.4 mV and the “V0.5 non-normalized tail current” value is listed as -48.30 ± 2.77 mV. On KCNQ2/3 (30 µM), the “effect on EM of unclamped oocytes” value was “hyperpolarized”.
For `COC(=O)[C@]12CCCC(C)(C)[C@@H]1CCc1cc(C(C)C)c(O)c(O)c12` [Methyl carnosate, methyl carnosate], on KCNQ3* (KCNQ3-A315T) (10 µM), the Slope came out at 4.63 ± 0.74 mV, the “V0.5 Normalized tail current” value is -47.09 ± 0.74 mV and the “shift in V0.5act / opening” value is given as “only a weak activator”. Also, the “solubility (highest testable concentration)” value in series [1] (pH 7.6) is on record as “poor solubility”. Further, on KCNQ2/3 (10 µM), the Slope was found to be 10.46 ± 0.87 mV, the “V0.5 Normalized tail current” value is -34.00 ± 0.97 mV and the “shift in V0.5act / opening” value is “did not open”.
For the compound `CC(C)c1cc2c(cc1O)C1(C(=O)O)CCCC(C)(C)C1CC2` (stereo not drawn) [Pisiferic acid, pisiferic acid], at KCNQ3* (KCNQ3-A315T) (100 µM), the Slope stood at 4.89 ± 0.45 mV, the “V0.5 Normalized tail current” value is recorded as -51.70 ± 0.51 mV and the “shift in V0.5act” value is on record as “only weakly negative-shifted”. For the same compound, on KCNQ2/3 (100 µM), the Slope is reported as 7.44 ± 0.55 mV and the “V0.5 Normalized tail current” value is reported as -42.05 ± 0.63 mV.
`O=C(O)[C@]1(O)C[C@@H](O)[C@@H](O)[C@H](O)C1` [Quinic acid, quinic acid]: on KCNQ3* (KCNQ3-A315T) (100 µM), the Slope turned out to be 3.96 ± 0.88 mV, the “V0.5 Normalized tail current” value is listed as -53.04 ± 1.09 mV, the “V0.5 non-normalized tail current” value was -51.87 ± 2.53 mV and the “shift in V0.5act” value was ~ −10 mV. Also, at KCNQ2/3 (100 µM), the Slope was 4.07 ± 0.85 mV, the “V0.5 Normalized tail current” value is recorded as -47.87 ± 0.94 mV and the “V0.5 non-normalized tail current” value is -45.78 ± 1.64 mV.
For the compound `COc1cc(C(=O)O)cc(OC)c1O` [Syringic acid], on KCNQ3* (KCNQ3-A315T) (100 µM), the Slope is recorded as 4.92 ± 1.03 mV, the “V0.5 Normalized tail current” value was -49.16 ± 1.21 mV and the “V0.5 non-normalized tail current” value was -51.58 ± 5.36 mV. Besides, on KCNQ2/3 (100 µM), the Slope is given as 5.13 ± 0.75 mV, the “V0.5 Normalized tail current” value is listed as -47.76 ± 0.91 mV and the “V0.5 non-normalized tail current” value is recorded as -44.21 ± 2.07 mV.
In the case of `C[C@H]1[C@H](C)CC[C@]2(C(=O)O)CC[C@]3(C)C(=CC[C@@H]4[C@@]5(C)CC[C@H](O)C(C)(C)[C@@H]5CC[C@]43C)[C@H]12` [Ursolic acid], the Slope on KCNQ3* (KCNQ3-A315T) (100 µM) is reported as 4.49 ± 0.53 mV.
For the compound `COC[C@H]1OC(=O)c2coc3c2[C@@]1(C)C1=C(C3=O)[C@@H]2CCC(=O)[C@@]2(C)C[C@H]1OC(C)=O` [wortmannin, reference compound], the “reduction of KCNQ3* current magnitude” value at KCNQ3* (KCNQ3-A315T) (wortmannin pretreatment to reduce PIP2) was “~ fivefold”.
